# Laboratory results as given in PubChem BioAssay (NCI).
#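 Exposure lasted 48 hours, with cells grown in 96-well plates and compounds tested at five concentrations. TGI: total growth inhibition.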
# Experiments:
# Experiment in all cases: growth of human tumour cells (NCI), 48 h
# HOP-62 NSCLC = tested on: HOP-62 NSCLC
# UACC-257 melanoma = tested on: UACC-257 melanoma
# COLO 205 colon = tested on: COLO 205 colon
# LOX IMVI melanoma = tested on: LOX IMVI melanoma
# DMS 114 small cell lung = tested on: DMS 114 small cell lung
# NCI-H522 lung = tested on: NCI-H522 lung
# HCT-116 colon = tested on: HCT-116 colon
# SK-MEL-2 melanoma = tested on: SK-MEL-2 melanoma
# NCI-H226 lung = tested on: NCI-H226 lung
# HL-60(TB) leukemia = tested on: HL-60(TB) leukemia
# EKVX NSCLC = tested on: EKVX NSCLC
# XF 498 CNS = tested on: XF 498 CNS
# SR leukemia = tested on: SR leukemia
# A498 renal = tested on: A498 renal
# DMS 273 small cell lung = tested on: DMS 273 small cell lung
# CCRF-CEM leukemia = tested on: CCRF-CEM leukemia
# OVCAR-5 ovarian = tested on: OVCAR-5 ovarian
# LXFL 529 NSCLC = tested on: LXFL 529 NSCLC
# IGROV1 ovarian = tested on: IGROV1 ovarian
# UO-31 renal = tested on: UO-31 renal
# DLD-1 colon = tested on: DLD-1 colon
# SK-MEL-28 melanoma = tested on: SK-MEL-28 melanoma
# HCC-2998 colon = tested on: HCC-2998 colon
# ACHN renal = tested on: ACHN renal
# SN12C renal = tested on: SN12C renal
# MOLT-4 leukemia = tested on: MOLT-4 leukemia
# M19-MEL melanoma = tested on: M19-MEL melanoma
# NCI-H23 lung = tested on: NCI-H23 lung
# MALME-3M melanoma = tested on: MALME-3M melanoma
# SF-268 CNS = tested on: SF-268 CNS
# 786-0 renal = tested on: 786-0 renal
# KM12 colon = tested on: KM12 colon
# UACC-62 melanoma = tested on: UACC-62 melanoma
# A549 NSCLC = tested on: A549 NSCLC
# SNB-75 CNS = tested on: SNB-75 CNS
# RXF-631 renal = tested on: RXF-631 renal
# OVCAR-8 ovarian = tested on: OVCAR-8 ovarian
# M14 melanoma = tested on: M14 melanoma
# OVCAR-3 ovarian = tested on: OVCAR-3 ovarian
# KM20L2 colon = tested on: KM20L2 colon
# SK-OV-3 ovarian = tested on: SK-OV-3 ovarian
# HT29 colon = tested on: HT29 colon
# TK-10 renal = tested on: TK-10 renal
# RXF 393 renal = tested on: RXF 393 renal
# SF-539 CNS = tested on: SF-539 CNS
# RPMI-8226 leukemia = tested on: RPMI-8226 leukemia
# HOP-18 NSCLC = tested on: HOP-18 NSCLC
# NCI-H460 lung = tested on: NCI-H460 lung
# HCT-15 colon = tested on: HCT-15 colon
# K-562 leukemia = tested on: K-562 leukemia
# SNB-78 CNS = tested on: SNB-78 CNS
# SW-620 colon = tested on: SW-620 colon
# SNB-19 CNS = tested on: SNB-19 CNS
# U251 CNS = tested on: U251 CNS
# OVCAR-4 ovarian = tested on: OVCAR-4 ovarian
# SF-295 CNS = tested on: SF-295 CNS
# SK-MEL-5 melanoma = tested on: SK-MEL-5 melanoma
# CAKI-1 renal = tested on: CAKI-1 renal
# HOP-92 NSCLC = tested on: HOP-92 NSCLC
smiles,measurement,setting,value
CC(=O)Oc1ccc(O)c2c1CCCC2,TGI,HOP-62 NSCLC,> 100 µM
same,TGI,UACC-257 melanoma,> 91.1 µM
same,TGI,COLO 205 colon,55.6 µM
same,TGI,LOX IMVI melanoma,36.3 µM
same,TGI,DMS 114 small cell lung,> 54 µM
same,TGI,NCI-H522 lung,18.1 µM
same,TGI,HCT-116 colon,32.9 µM
same,TGI,SK-MEL-2 melanoma,> 100 µM
same,TGI,NCI-H226 lung,> 100 µM
same,TGI,HL-60(TB) leukemia,14.1 µM
same,TGI,EKVX NSCLC,> 100 µM
same,TGI,XF 498 CNS,30 µM
same,TGI,SR leukemia,16.3 µM
same,TGI,A498 renal,> 31.6 µM
same,TGI,DMS 273 small cell lung,> 64.1 µM
same,TGI,CCRF-CEM leukemia,47.6 µM
same,TGI,OVCAR-5 ovarian,> 100 µM
same,TGI,LXFL 529 NSCLC,31.2 µM
same,TGI,IGROV1 ovarian,> 100 µM
same,TGI,UO-31 renal,> 64.5 µM
same,TGI,DLD-1 colon,48.5 µM
same,TGI,SK-MEL-28 melanoma,> 100 µM
same,TGI,HCC-2998 colon,> 100 µM
same,TGI,ACHN renal,29.2 µM
same,TGI,SN12C renal,> 65.9 µM
same,TGI,MOLT-4 leukemia,43.5 µM
same,TGI,M19-MEL melanoma,18.4 µM
same,TGI,NCI-H23 lung,> 91.1 µM
same,TGI,MALME-3M melanoma,> 61.2 µM
same,TGI,SF-268 CNS,> 100 µM
same,TGI,786-0 renal,> 100 µM
same,TGI,KM12 colon,> 100 µM
same,TGI,UACC-62 melanoma,> 100 µM
same,TGI,A549 NSCLC,> 100 µM
same,TGI,SNB-75 CNS,> 100 µM
same,TGI,RXF-631 renal,> 100 µM
same,TGI,OVCAR-8 ovarian,32.9 µM
same,TGI,M14 melanoma,> 68.2 µM
same,TGI,OVCAR-3 ovarian,25.9 µM
same,TGI,KM20L2 colon,> 100 µM
same,TGI,SK-OV-3 ovarian,> 100 µM
same,TGI,HT29 colon,> 100 µM
same,TGI,TK-10 renal,49.6 µM
same,TGI,RXF 393 renal,> 57.5 µM
same,TGI,SF-539 CNS,> 100 µM
same,TGI,RPMI-8226 leukemia,66.4 µM
same,TGI,HOP-18 NSCLC,> 100 µM
same,TGI,NCI-H460 lung,> 31.6 µM
same,TGI,HCT-15 colon,18.4 µM
same,TGI,K-562 leukemia,54.6 µM
same,TGI,SNB-78 CNS,40.2 µM
same,TGI,SW-620 colon,39.6 µM
same,TGI,SNB-19 CNS,> 100 µM
same,TGI,U251 CNS,> 100 µM
same,TGI,OVCAR-4 ovarian,33.2 µM
same,TGI,SF-295 CNS,> 100 µM
same,TGI,SK-MEL-5 melanoma,> 63.3 µM
same,TGI,CAKI-1 renal,> 73.4 µM
CC(C)=CC1CCc2ccccc2N1S(=O)(=O)c1ccc(C)cc1 (stereo unspecified),TGI,HOP-62 NSCLC,14 µM
same,TGI,UACC-257 melanoma,23.6 µM
same,TGI,COLO 205 colon,5.4 µM
same,TGI,LOX IMVI melanoma,12.6 µM
same,TGI,DMS 114 small cell lung,4.12 µM
same,TGI,NCI-H522 lung,5.77 µM
same,TGI,HCT-116 colon,6.69 µM
same,TGI,SK-MEL-2 melanoma,7.12 µM
same,TGI,NCI-H226 lung,6.05 µM
same,TGI,EKVX NSCLC,> 100 µM
same,TGI,XF 498 CNS,26.8 µM
same,TGI,A498 renal,6.98 µM
same,TGI,DMS 273 small cell lung,1.59 µM
same,TGI,CCRF-CEM leukemia,> 100 µM
same,TGI,OVCAR-5 ovarian,> 31.6 µM
same,TGI,LXFL 529 NSCLC,> 47.2 µM
same,TGI,IGROV1 ovarian,> 100 µM
same,TGI,UO-31 renal,> 100 µM
same,TGI,DLD-1 colon,> 100 µM
same,TGI,SK-MEL-28 melanoma,> 40.1 µM
same,TGI,HCC-2998 colon,7.95 µM
same,TGI,ACHN renal,> 31.6 µM
same,TGI,SN12C renal,> 100 µM
same,TGI,MOLT-4 leukemia,10.3 µM
same,TGI,M19-MEL melanoma,13.7 µM
same,TGI,NCI-H23 lung,5.7 µM
same,TGI,MALME-3M melanoma,51.5 µM
same,TGI,SF-268 CNS,85.8 µM
same,TGI,786-0 renal,12.1 µM
same,TGI,KM12 colon,6.16 µM
same,TGI,UACC-62 melanoma,16.1 µM
same,TGI,HOP-92 NSCLC,7.61 µM
same,TGI,A549 NSCLC,18.9 µM
same,TGI,SNB-75 CNS,> 25.1 µM
same,TGI,RXF-631 renal,> 100 µM
same,TGI,OVCAR-8 ovarian,> 31.3 µM
same,TGI,M14 melanoma,7.38 µM
same,TGI,OVCAR-3 ovarian,4.25 µM
same,TGI,KM20L2 colon,3.12 µM
same,TGI,SK-OV-3 ovarian,> 100 µM
same,TGI,HT29 colon,3.24 µM
same,TGI,TK-10 renal,> 31.6 µM
same,TGI,RXF 393 renal,5.14 µM
same,TGI,SF-539 CNS,3.14 µM
same,TGI,RPMI-8226 leukemia,5.07 µM
same,TGI,HOP-18 NSCLC,> 100 µM
same,TGI,NCI-H460 lung,8.02 µM
same,TGI,HCT-15 colon,> 31.6 µM
same,TGI,K-562 leukemia,> 100 µM
same,TGI,SNB-78 CNS,> 100 µM
same,TGI,SW-620 colon,> 100 µM
same,TGI,SNB-19 CNS,> 100 µM
same,TGI,U251 CNS,4.58 µM
same,TGI,OVCAR-4 ovarian,> 31.6 µM
same,TGI,SF-295 CNS,> 21.4 µM
same,TGI,SK-MEL-5 melanoma,5.12 µM
CCCCCCC[C@@H](O)CC(=O)NC(CC(C)C)C(=O)NC(CCC(=O)O)C(=O)NC1C(=O)NC(C(C)C)C(=O)NC(CC(C)C)C(=O)NC(CO)C(=O)NC(CC(C)C)C(=O)NC(CO)C(=O)NC(C(C)CC)C(=O)OC1C (stereo partly specified),TGI,HOP-62 NSCLC,24.4 µM
same,TGI,UACC-257 melanoma,29 µM
same,TGI,COLO 205 colon,2.93 µM
same,TGI,LOX IMVI melanoma,31.2 µM
same,TGI,DMS 114 small cell lung,33.1 µM
same,TGI,NCI-H522 lung,26.6 µM
same,TGI,HCT-116 colon,25.7 µM
same,TGI,NCI-H226 lung,34.2 µM
same,TGI,HL-60(TB) leukemia,37.2 µM
same,TGI,XF 498 CNS,15.2 µM
same,TGI,SR leukemia,35.3 µM
same,TGI,A498 renal,31.6 µM
same,TGI,DMS 273 small cell lung,28.1 µM
same,TGI,CCRF-CEM leukemia,25.8 µM
same,TGI,OVCAR-5 ovarian,31.8 µM
same,TGI,LXFL 529 NSCLC,25.8 µM
same,TGI,IGROV1 ovarian,31.6 µM
same,TGI,UO-31 renal,33.6 µM
same,TGI,DLD-1 colon,3.04 µM
same,TGI,SK-MEL-28 melanoma,30.6 µM
same,TGI,HCC-2998 colon,28.6 µM
same,TGI,ACHN renal,25.7 µM
same,TGI,SN12C renal,29.5 µM
same,TGI,MOLT-4 leukemia,39.9 µM
same,TGI,M19-MEL melanoma,22.6 µM
same,TGI,NCI-H23 lung,29.9 µM
same,TGI,MALME-3M melanoma,17.6 µM
same,TGI,SF-268 CNS,30.5 µM
same,TGI,786-0 renal,27.9 µM
same,TGI,KM12 colon,26.6 µM
same,TGI,UACC-62 melanoma,29.1 µM
same,TGI,HOP-92 NSCLC,18.7 µM
same,TGI,A549 NSCLC,36.1 µM
same,TGI,SNB-75 CNS,18 µM
same,TGI,RXF-631 renal,28.8 µM
same,TGI,OVCAR-8 ovarian,29.8 µM
same,TGI,M14 melanoma,20.9 µM
same,TGI,OVCAR-3 ovarian,31.1 µM
same,TGI,KM20L2 colon,30.5 µM
same,TGI,SK-OV-3 ovarian,34.4 µM
same,TGI,HT29 colon,31 µM
same,TGI,TK-10 renal,28.9 µM
same,TGI,RXF 393 renal,26 µM
same,TGI,SF-539 CNS,4.77 µM
same,TGI,RPMI-8226 leukemia,33.5 µM
same,TGI,HOP-18 NSCLC,24.9 µM
same,TGI,NCI-H460 lung,11.3 µM
same,TGI,HCT-15 colon,4.42 µM
same,TGI,K-562 leukemia,30.9 µM
same,TGI,SNB-78 CNS,34.3 µM
same,TGI,SW-620 colon,28.8 µM
same,TGI,SNB-19 CNS,16.6 µM
same,TGI,U251 CNS,20.9 µM
same,TGI,OVCAR-4 ovarian,34.4 µM
same,TGI,SF-295 CNS,22.2 µM
same,TGI,SK-MEL-5 melanoma,29.9 µM
same,TGI,CAKI-1 renal,37.6 µM
